Results: patent US20180057505A1, “BICYCLIC HETEROARYL COMPOUNDS USEFUL AS INHIBITORS OF THE PAR-2 SIGNALING PATHWAY” (VERTEX PHARMACEUTICALS INCORPORATED, priority 2015, published 2018)

Assays:
Assay type in all cases: cell-based
[1] = target: T1, PAR2 (HT-29 cells) (Homo sapiens, UniProt P55085); test: Ca FLIPR TETRA assay, ANTAGONIST mode, activator 3.1 U/mL trypsin; details: HT-29 cells, activator 3.1 U/mL trypsin
T1 construct: host or cells: HT-29
T1 sequence (P55085 26-397): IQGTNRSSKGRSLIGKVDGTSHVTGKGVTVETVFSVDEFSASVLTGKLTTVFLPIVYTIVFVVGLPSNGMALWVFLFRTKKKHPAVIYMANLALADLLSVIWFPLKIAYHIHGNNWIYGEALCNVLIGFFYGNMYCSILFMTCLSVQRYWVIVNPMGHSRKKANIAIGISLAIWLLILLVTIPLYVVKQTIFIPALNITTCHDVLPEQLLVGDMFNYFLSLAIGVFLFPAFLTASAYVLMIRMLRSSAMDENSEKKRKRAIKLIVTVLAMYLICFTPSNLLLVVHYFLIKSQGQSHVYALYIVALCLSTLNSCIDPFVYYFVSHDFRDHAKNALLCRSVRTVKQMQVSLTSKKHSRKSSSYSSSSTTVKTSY
Experimental: (§1) Protocol for Testing PAR2 Compounds in ANTAGONIST Mode Using the Ca FLIPR^TETRA Assay (384 Well).
(§2) 23000 HT-29 cells (ATCC# HTB-38) were plated in 384-well black, transparent-flat bottom plates and incubated in 25 uL of 1% FBS/McCoy's media ON at 37° C. under an atmosphere of 5% CO2. The following day, 25 uL FLIPR calcium 5 Molecular Devices assay reagent (Cat: R-8186) was added. Plates were incubated at 37° C. and r. t. for 45 min and 15 min, respectively. Compounds dilutions were prepared in 100% DMSO using a Biomek FX and diluted 20-fold in HBSS and then 5.5 uL was added directly to the cells by the FLIPR^TETRA (10× dilution) using FLIPR Tetra Pipette tips, black, non-sterile, 384 Molecular Devices (Cat: 9000-0764).
(§3) A first read was performed to determine whether the test compounds on their own can activate Ca^2+ responses. The cells were incubated with the compounds for 30 min at r. t. and then read in ANTAGONIST mode in the same plate by stimulating with 6.2 uL of a fixed concentration of the activator: final concentrations 8 μM SLIGKV, 1 U/mL Thrombin, 3.1 U/mL trypsin, or 0.6 μM UTP.

[2] = target: T1, PAR2 (HT-29 cells); test: Ca FLIPR TETRA assay, ANTAGONIST mode, activator 8 μM SLIGKV; details: HT-29 cells, activator 8 μM SLIGKV
Experimental: as §1, §2, §3

[3] = system: Thrombin-stimulated Ca2+ response in HT-29 cells; test: Ca FLIPR TETRA assay, ANTAGONIST mode, activator 1 U/mL Thrombin; details: HT-29 cells, activator 1 U/mL Thrombin
Experimental: as §1, §2, §3

[4] = system: UTP-stimulated Ca2+ response in HT-29 cells; test: Ca FLIPR TETRA assay, ANTAGONIST mode, activator 0.6 μM UTP; details: HT-29 cells, activator 0.6 μM UTP
Experimental: as §1, §2, §3

[5] = Method A: maximal concentration of antagonist 0.1, 1 or 2 μM
[6] = maximal antagonist concentration per Method (A: 0.1, 1 or 2 μM; B: 50 μM)

| Compound | IC50 [1, 5] | IC50 [2, 5] | IC50 ([3]; Homo sapiens) | IC50 ([4]; Homo sapiens) | IC50 [1, 6] | IC50 [2, 6] | IC50 [3] | IC50 [4] |
| --- | --- | --- | --- | --- | --- | --- | --- | --- |
| CC(C)(C)c1cc(-c2ccc(Cl)c(F)c2)nc2cc(C(=O)N3CCN(c4cnc(C(=O)O)cn4)CC3(C)C)oc12 [Example I-456] | 4.2 nM | 3.2 nM | > 2000 nM | > 2000 nM | – | – | – | – |
| CN1CCN(C(=O)c2cc3nc(-c4ccc(F)cc4)cc(C(C)(C)C)c3o2)C(C)(C)C1=O [Example I-206] | – | – | > 1000 nM | > 1000 nM | 4 nM | 4 nM | – | – |
| CC(C)c1cc(-c2ccc(F)cc2)nc2cc(C(=O)N3CCN(C(=O)c4ccno4)CC3(C)C)oc12 [Example I-13] | – | – | 1000 nM | 1200 nM | 4.5 nM | 3 nM | – | – |
| Cc1coc(N2CCN(C(=O)c3cc4nc(C5CCC(C)(C)CC5)cc(C(C)(C)C)c4o3)C(C)(C)C2)n1 [Example I-382] | 100 nM | 120 nM | > 2000 nM | > 2000 nM | – | – | – | – |
| Cc1ccc(-c2cc(C(C)(C)C)c3oc(C(=O)N4CCN(C(=O)[C@H]5C[C@@](C)(O)C5)CC4(C)C)cc3n2)cc1 [Example I-164] | – | – | > 1000 nM | > 1000 nM | 4 nM | 2.9 nM | – | – |
| CC(C)(C)c1cc(-c2ccc(Cl)cc2)nc2cc(C(=O)N3CCN(c4cn[nH]c4)CC3(C)C)oc12 [Example I-273] | – | – | > 2000 nM | > 2000 nM | 14 nM | 26 nM | – | – |
| Cc1cc(C(=O)N2CCN(C(=O)c3cc4nc(-c5ccc(C(F)(F)F)cc5)cc(C(C)(C)C)c4o3)C(C)(C)C2)[nH]n1 [Example I-171] | – | – | > 1000 nM | > 1000 nM | 6.6 nM | 5.6 nM | – | – |
| CC1(C)CCC(c2cc(C(C)(C)C)c3oc(C(=O)N4CCC(c5ncc(C(=O)O)cn5)CC4(C)C)cc3n2)CC1 (stereo not shown) [Example I-427] | 0.8 nM | 0.5 nM | – | – | – | – | 420 nM | 520 nM |
| Cc1ncc(N2CCN(C(=O)c3cc4nc(-c5ccc(Cl)c(F)c5)cc(C(C)(C)C)c4o3)C(C)(C)C2)nc1C(=O)O [Example I-524] | 2.6 nM | 2 nM | > 2000 nM | > 2000 nM | – | – | – | – |
| CC(C)c1cc(-c2ccc(F)cc2)nc2cc(C(=O)N3CCN(C(=O)C4CCCC4)CC3(C)C)oc12 [Example I-71] | – | – | 35000 nM | 36000 nM | 4.7 nM | 2.6 nM | – | – |
| CC(C)(C)c1cc(-c2ccc(Cl)cc2)nc2cc(C(=O)N3CCN(c4ncc(C(=O)O)cn4)C(=O)C3(C)C)oc12 [Example I-369] | 19 nM | 12 nM | > 2000 nM | > 2000 nM | – | – | – | – |
| CC1(C)CCC(c2cc(C(C)(C)C)c3oc(C(=O)N4CCNC(=O)CC4(C)C)cc3n2)CC1 [Example I-486] | 70 nM | 42 nM | – | – | – | – | > 2000 nM | > 2000 nM |
| Cc1ncc(C(=O)N2CCN(C(=O)c3cc4nc(-c5ccc(C(F)(F)F)cc5)cc(C(C)(C)C)c4o3)C(C)(C)C2)[nH]1 [Example I-170] | – | – | > 1000 nM | > 1000 nM | 8.2 nM | 6 nM | – | – |
| C[C@H]1CN(C(=O)c2cc3nc(-c4ccc(F)cc4)cc(C4(C)CC4)c3o2)CCN1C(=O)C(O)c1ccc(F)cc1 (stereo partly shown) [Example I-114] | – | – | 27000 nM | 30000 nM | 2.7 nM | 2.2 nM | – | – |
| CC(C)(C)c1cc(-c2ccc(Cl)c(F)c2)nc2cc(C(=O)N3CCN(c4ccc(C(=O)O)c(N)n4)CC3(C)C)oc12 [Example I-510] | 0.8 nM | 0.3 nM | > 2000 nM | > 2000 nM | – | – | – | – |
| COCC(=O)N1CCN(C(=O)c2cc3nc(-c4ccc(F)cc4)cc(C(C)C)c3o2)C(C)(C)C1 [Example I-17] | – | – | 14000 nM | 15000 nM | 67 nM | 59 nM | – | – |
| CC(C)(C)c1cc(C2CCCCCC2)nc2cc(C(=O)N3CCNC(=O)C3(C)C)oc12 [Example I-214] | – | – | > 1000 nM | > 1000 nM | 26 nM | 27 nM | – | – |

| Compound | IC50 [1, 5] | IC50 [2, 5] | IC50 ([3]; Homo sapiens) | IC50 ([4]; Homo sapiens) | IC50 [1, 6] | IC50 [2, 6] | IC50 [3] | IC50 [4] |
| --- | --- | --- | --- | --- | --- | --- | --- | --- |
| CC(C)(C)c1cc(-c2ccc(Cl)cc2)nc2cc(C(=O)N3CCC(c4nc(C(=O)O)cs4)CC3(C)C)oc12 (stereo not shown) [Example I-426] | 0.1 nM | 0.1 nM | – | – | – | – | 1800 nM | 1300 nM |
| C[C@H]1CN(C(=O)c2cc3nc(-c4ccc(F)cc4)cc(C4(C)CC4)c3o2)CCN1C(=O)C1(O)CC1 [Example I-117] | – | – | 12000 nM | 7700 nM | 2300 nM | 1100 nM | – | – |
| CC(C)(C)c1cc(C2CCC(F)(F)CC2)nc2cc(C(=O)N3CCN(C(=O)[C@H]4CC[C@@H](O)CC4)CC3(C)C)oc12 [Example I-225] | – | – | > 2000 nM | > 2000 nM | 24 nM | 13 nM | – | – |
| COC(=O)C1CC(C(=O)N2CCN(C(=O)c3cc4nc(-c5ccc(F)cc5)cc(C(C)(C)C)c4o3)C(C)(C)C2)C1 (stereo not shown) [Example I-188] | – | – | > 1000 nM | > 1000 nM | 6 nM | 3 nM | – | – |
| CC(C)(C)c1cc(-c2ccc(F)cc2)nc2cc(C(=O)N3CCN(C(=O)CCS(C)(=O)=O)CC3(C)C)oc12 [Example I-213] | – | – | > 2000 nM | > 2000 nM | 53 nM | 8 nM | – | – |
| [2H]C([2H])([2H])N1CCN(C(=O)c2cc3nc(-c4ccc(Cl)cc4)cc(C(C)(C)C)c3o2)C(C)(C)C1=O [Example I-240] | – | – | > 2000 nM | > 2000 nM | 1.8 nM | 2.7 nM | – | – |
| CC(C)[C@H](CC(=O)O)C(=O)N1CCN(C(=O)c2cc3nc(-c4ccc(Cl)c(F)c4)cc(C(C)(C)C)c3o2)C(C)(C)C1 [Example I-374] | 4.1 nM | 3.6 nM | > 2000 nM | > 2000 nM | – | – | – | – |
| Cc1nc(N2CCN(C(=O)c3cc4nc(-c5ccc(Cl)cc5)cc(C(C)(C)C)c4o3)C(C)(C)C2)oc1C(=O)O [Example I-478] | 4.1 nM | 1.9 nM | > 500 nM | > 500 nM | – | – | – | – |
| CC(C)(C)c1cc(-c2ccc(F)cc2)nc2cc(C(=O)N3CCN(N4CCNC(=O)CC4(C)C)CC3(C)C)oc12 [Example I-454] | 67 nM | 41 nM | > 2000 nM | > 2000 nM | – | – | – | – |
| Cc1cnc(N2CCN(C(=O)c3cc4nc(-c5ccc(Cl)c(F)c5)cc(C(C)(C)C)c4o3)C(C)(C)C2)c(C(=O)O)c1 [Example I-492] | 7.3 nM | 7.5 nM | > 2000 nM | > 2000 nM | – | – | – | – |
| CC(C)(C)c1cc(-c2ccc(Cl)cc2)nc2cc(C(=O)N3CCN(c4ncc(-c5nnn[nH]5)cn4)CC3(C)C)oc12 [Example I-341] | 4.4 nM | 1.6 nM | > 2000 nM | 1700 nM | – | – | – | – |
| CO[C@@H](C(=O)N1CCN(C(=O)c2cc3nc(-c4ccc(F)cc4)cc(C(C)C)c3o2)C[C@@H]1C)c1ccccc1 [Example I-84] | – | – | 50000 nM | > 25000 nM | 29 nM | 6.3 nM | – | – |
| CC(C)c1cc(-c2ccc(F)cc2)nc2cc(C(=O)N3CCN(C(=O)C(O)C(C)C)CC3(C)C)oc12 (stereo not shown) [Example I-12] | – | – | 8700 nM | 5800 nM | 8.6 nM | 8.3 nM | – | – |
| CC(C)(C)c1cc(-c2ccc(Cl)c(F)c2)nc2cc(C(=O)N3CCN(C(=O)C4CC5(CC(C(=O)O)C5)C4)C(=O)C3(C)C)oc12 (stereo not shown) [Example I-362] | 1 nM | 0.7 nM | – | – | – | – | > 1100 nM | > 1100 nM |
| CC(C)(C)c1cc(C2CC3(CCC3)C2)nc2cc(C(=O)N3CCN(C(=O)[C@H]4COCCN4)CC3(C)C)oc12 [Example I-446] | 130 nM | 106 nM | > 2000 nM | > 2000 nM | – | – | – | – |
| CC(C)c1cc(-c2ccc(F)cc2)nc2cc(C(=O)N3CCN(C(=O)C(C)(C)O)[C@@H](C)C3)oc12 [Example I-87] | – | – | 19000 nM | 16000 nM | 3800 nM | 3700 nM | – | – |
| CC(C)c1cc(-c2ccc(F)cc2)nc2cc(C(=O)N3CCN(C(=O)C4(C)CC4)CC3(C)C)oc12 [Example I-19] | – | – | 10000 nM | 5700 nM | 4.4 nM | 5.6 nM | – | – |
